PMC6094047 (Antiviral Research, 2018)
Read-outs that look alike come from different tables or passages of the source.

Tests used:
[1] = system: A(H3N2) virus neuraminidase (NA); type: biochemical, influenza A(H3N2) virus
[2] = system: B/Victoria-lineage virus neuraminidase (NA); settings: cited from earlier work
[3] = system: B/Yamagata-lineage virus neuraminidase (NA); set-up: method as in Gubareva et al., 2017a; Monto et al., 2006; settings: ref Gubareva et al., 2017a, Monto et al., 2006, cited from earlier work
[4] = system: influenza; set-up: method as in Rossignol, 2018; settings: vs placebo, twice daily for 5 days, subjects enrolled within 36 h of symptom onset and followed up daily; ref Rossignol, 2018; cited from earlier work
[5] = system: uncomplicated influenza; set-up: method as in Hayden, 2018; settings: phase III, given <48 h after onset of symptoms; ref Hayden, 2018; cited from earlier work
[6] = system: uncomplicated influenza; settings: phase III, ref Epstein, 2017; cited from earlier work
[7] = system: influenza; set-up: method as in Haffizula et al., 2014; settings: 600 mg twice daily for five days, ref Haffizula et al., 2014, cited from earlier work
[8] = frequency of reported adverse events similar to placebo; cited from earlier work
[9] = B/Victoria-lineage NA A245T, ref Leang et al., 2014
[10] = B/Victoria-lineage NA D197N, ref Gubareva et al., 1998, 2017b, Ison et al., 2006, Mishin et al., 2005

[H]/N=C(\N)N[C@H]1C=C(C(=O)O)O[C@@H]([C@H](OC)[C@H](O)CO)[C@@H]1NC(C)=O [Laninamivir]
IC50 fold-change compared to reference median IC50 values [1]: 17 fold

CCOC(=O)C1=C[C@@H](OC(CC)CC)[C@H](NC(C)=O)[C@@H](N)C1 [Oseltamivir]
inhibition phenotype associated with NA AAS (NI/RI/HRI) [2, 9]: RI (type B viruses 5- to 50-fold) | inhibition phenotype associated with NA AAS (NI/RI/HRI) [2, 10]: RI (type B viruses 5- to 50-fold) | fold increase in IC50 ([3]; B/Yamagata-lineage NA I221T): greater than 5 fold | improvement in median time to alleviation of symptoms [4]: 50 h

CCC(CC)[C@H](NC(C)=O)[C@@H]1[C@H](O)[C@@H](C(=O)O)C[C@H]1N=C(N)N [Peramivir]
IC50 fold-change compared to reference median IC50 values [1]: 5.3 fold | inhibition phenotype (NI/RI/HRI) [1]: NI (key: normal inhibition (NI) (type A viruses <10-fold; reduced inhibition (RI) (type A viruses 10- to 100-fold; highly reduced inhibition (HRI) (type A viruses >100-fold) | inhibition phenotype associated with NA AAS (NI/RI/HRI) [2, 9]: RI (type B viruses 5- to 50-fold) | inhibition phenotype associated with NA AAS (NI/RI/HRI) [2, 10]: RI (type B viruses 5- to 50-fold) | inhibition phenotype associated with NA AAS (NI/RI/HRI) ([2]; B/Victoria-lineage NA K360E, D432G or H273Y, ref WHO-AVWG NAI substitution table): RI (type B viruses 5- to 50-fold) | inhibition phenotype associated with NA AAS (NI/RI/HRI) ([3]; B/Yamagata-lineage NA I221V and I221T): RI (type B viruses 5- to 50-fold)

CC(=O)N[C@H]1[C@H]([C@H](O)[C@H](O)CO)OC(C(=O)O)=C[C@@H]1N=C(N)N [Zanamivir]
inhibition phenotype associated with NA AAS (NI/RI/HRI) [2, 9]: RI (type B viruses 5- to 50-fold) | inhibition phenotype associated with NA AAS (NI/RI/HRI) [2, 10]: RI (type B viruses 5- to 50-fold)

O=C1c2c(O)c(=O)ccn2N([C@@H]2c3ccccc3SCc3c2ccc(F)c3F)[C@@H]2COCCN12 [baloxavir, Baloxavir]
alleviation of symptoms faster than placebo [5]: 26.5 h

NC(=O)c1nc(F)c[nH]c1=O [favipiravir, Favipiravir]
reduction of median time to alleviation of symptoms compared to placebo [6]: 6 to 14 h

CC(=O)Oc1ccccc1C(=O)Nc1ncc([N+](=O)[O-])s1 [nitazoxanide, Nitazoxanide]
median improvement in alleviation of influenza symptoms ([7]; enrolled within 48 h of symptom onset, p = 0.0084): 22 h | virus shedding ([7]; p = 0.0006): significant reduction | improvement in median time to alleviation of symptoms [4]: 50 h | tolerability, adverse events [8]: well tolerated
